In patent US8592413B2, “Therapeutic substituted cyclopentanes” (Allergan, Inc., priority 2008, dated 2013):

Experiments:
hEP3A = molecular target: T1, hEP3A (Homo sapiens, UniProt P43115); assay: Other receptors: hEP3A EC50; assay type: cell-based
T1 sequence (P43115 1-390): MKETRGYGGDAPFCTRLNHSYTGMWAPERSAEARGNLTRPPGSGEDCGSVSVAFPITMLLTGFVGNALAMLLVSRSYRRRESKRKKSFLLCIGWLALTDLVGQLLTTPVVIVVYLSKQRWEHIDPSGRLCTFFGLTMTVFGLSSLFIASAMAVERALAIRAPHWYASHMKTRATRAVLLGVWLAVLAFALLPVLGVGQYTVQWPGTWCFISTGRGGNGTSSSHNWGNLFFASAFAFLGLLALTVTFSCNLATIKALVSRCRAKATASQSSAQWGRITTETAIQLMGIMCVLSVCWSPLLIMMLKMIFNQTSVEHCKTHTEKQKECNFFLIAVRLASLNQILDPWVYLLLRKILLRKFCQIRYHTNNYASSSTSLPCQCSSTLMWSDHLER
Text: (§1) US 2007/0129552, incorporated by reference herein, describes the methods used to obtain the in vitro data in the table below.

EP4 [1] = molecular target: T2, EP4 (Homo sapiens, UniProt P35408); assay: EP4 flipr; assay type: cell-based
T2 sequence (P35408 whole entry): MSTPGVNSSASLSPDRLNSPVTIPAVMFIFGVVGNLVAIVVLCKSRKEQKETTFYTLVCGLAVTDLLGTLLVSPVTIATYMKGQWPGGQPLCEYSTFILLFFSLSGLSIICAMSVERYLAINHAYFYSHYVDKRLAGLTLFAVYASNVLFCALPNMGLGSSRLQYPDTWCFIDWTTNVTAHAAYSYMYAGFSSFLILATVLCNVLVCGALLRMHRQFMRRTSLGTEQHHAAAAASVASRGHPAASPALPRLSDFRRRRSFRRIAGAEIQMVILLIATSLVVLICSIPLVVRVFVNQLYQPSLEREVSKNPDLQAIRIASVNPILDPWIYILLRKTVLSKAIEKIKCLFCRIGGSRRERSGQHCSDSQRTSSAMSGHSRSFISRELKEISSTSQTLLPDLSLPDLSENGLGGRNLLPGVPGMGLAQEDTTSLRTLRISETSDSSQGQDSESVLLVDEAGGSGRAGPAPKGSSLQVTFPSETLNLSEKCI
Text: as §1

hDP = molecular target: T3, hDP (Homo sapiens, UniProt Q13258); assay: Other receptors: hDP EC50; assay type: cell-based
T3 sequence (Q13258 1-359): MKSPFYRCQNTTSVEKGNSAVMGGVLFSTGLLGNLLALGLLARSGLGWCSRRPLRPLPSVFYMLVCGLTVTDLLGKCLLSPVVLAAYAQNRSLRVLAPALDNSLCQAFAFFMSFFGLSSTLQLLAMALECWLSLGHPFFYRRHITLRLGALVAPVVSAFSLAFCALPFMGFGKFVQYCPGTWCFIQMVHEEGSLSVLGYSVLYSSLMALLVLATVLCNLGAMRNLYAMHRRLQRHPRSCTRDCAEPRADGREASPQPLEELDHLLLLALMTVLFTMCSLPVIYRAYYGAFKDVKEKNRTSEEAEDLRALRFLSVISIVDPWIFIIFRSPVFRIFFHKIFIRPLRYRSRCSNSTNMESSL
Text: as §1

hTP = molecular target: T4, hTP (Homo sapiens, UniProt P21731); assay: Other receptors: hTP EC50; assay type: cell-based
T4 sequence (P21731 1-343): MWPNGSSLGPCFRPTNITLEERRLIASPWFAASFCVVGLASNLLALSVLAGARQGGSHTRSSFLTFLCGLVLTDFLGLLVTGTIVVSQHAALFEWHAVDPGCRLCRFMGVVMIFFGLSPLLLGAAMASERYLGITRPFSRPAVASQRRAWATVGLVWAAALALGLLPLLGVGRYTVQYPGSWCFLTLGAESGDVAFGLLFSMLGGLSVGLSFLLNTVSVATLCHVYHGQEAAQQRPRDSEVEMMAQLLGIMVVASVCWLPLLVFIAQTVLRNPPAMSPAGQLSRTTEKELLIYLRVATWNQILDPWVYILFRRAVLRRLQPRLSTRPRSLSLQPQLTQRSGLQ
Text: as §1

hFP = hFP (Homo sapiens, UniProt P43088); assay: Other receptors: hFP EC50; assay type: cell-based
Sequence of hFP (P43088 whole entry): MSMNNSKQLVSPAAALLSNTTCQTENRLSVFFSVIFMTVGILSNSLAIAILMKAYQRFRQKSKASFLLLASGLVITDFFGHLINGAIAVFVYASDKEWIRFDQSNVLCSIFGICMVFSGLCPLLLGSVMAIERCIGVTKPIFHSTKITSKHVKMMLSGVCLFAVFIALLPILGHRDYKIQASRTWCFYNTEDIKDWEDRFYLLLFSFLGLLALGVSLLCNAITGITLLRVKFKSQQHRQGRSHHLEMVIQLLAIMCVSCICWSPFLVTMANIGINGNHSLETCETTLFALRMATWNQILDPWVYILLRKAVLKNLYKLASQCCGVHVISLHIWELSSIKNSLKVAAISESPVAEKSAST
Text: as §1

EP4 [2] = molecular target: T2, EP4; assay: EP4 KI (binding)
Text: as §1

hIP = hIP (Homo sapiens, UniProt P43119); assay: Other receptors: hIP EC50; assay type: cell-based
Sequence of hIP (P43119 whole entry): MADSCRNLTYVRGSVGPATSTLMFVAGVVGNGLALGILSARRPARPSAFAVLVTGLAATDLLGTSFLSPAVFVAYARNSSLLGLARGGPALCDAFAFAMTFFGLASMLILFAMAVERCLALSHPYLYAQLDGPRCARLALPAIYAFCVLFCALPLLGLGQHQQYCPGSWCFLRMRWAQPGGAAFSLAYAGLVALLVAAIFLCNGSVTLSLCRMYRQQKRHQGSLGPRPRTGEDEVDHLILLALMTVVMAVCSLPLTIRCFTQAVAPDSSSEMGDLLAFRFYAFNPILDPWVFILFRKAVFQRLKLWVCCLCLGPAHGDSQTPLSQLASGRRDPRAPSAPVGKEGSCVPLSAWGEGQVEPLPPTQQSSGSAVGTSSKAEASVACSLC
Text: as §1

EP2 [3] = molecular target: T5, EP2 (Homo sapiens, UniProt P43116); assay: EP2 cAMP; assay type: cell-based
T5 sequence (P43116 whole entry): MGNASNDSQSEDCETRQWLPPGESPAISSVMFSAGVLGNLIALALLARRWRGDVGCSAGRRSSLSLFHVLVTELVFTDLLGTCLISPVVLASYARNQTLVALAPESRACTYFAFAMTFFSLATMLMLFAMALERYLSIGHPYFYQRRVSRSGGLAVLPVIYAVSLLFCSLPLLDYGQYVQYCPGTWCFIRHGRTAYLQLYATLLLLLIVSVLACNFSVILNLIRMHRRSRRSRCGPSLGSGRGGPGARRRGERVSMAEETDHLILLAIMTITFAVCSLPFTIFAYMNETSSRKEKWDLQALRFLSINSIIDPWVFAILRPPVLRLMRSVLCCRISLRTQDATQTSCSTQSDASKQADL
Text: as §1

EP2 [4] = molecular target: T5, EP2; assay: EP2 flipr; assay type: cell-based
Text: as §1

hEP1 = molecular target: T6, hEP1 (Homo sapiens, UniProt P34995); assay: Other receptors: hEP1 EC50; assay type: cell-based
T6 sequence (P34995 1-402): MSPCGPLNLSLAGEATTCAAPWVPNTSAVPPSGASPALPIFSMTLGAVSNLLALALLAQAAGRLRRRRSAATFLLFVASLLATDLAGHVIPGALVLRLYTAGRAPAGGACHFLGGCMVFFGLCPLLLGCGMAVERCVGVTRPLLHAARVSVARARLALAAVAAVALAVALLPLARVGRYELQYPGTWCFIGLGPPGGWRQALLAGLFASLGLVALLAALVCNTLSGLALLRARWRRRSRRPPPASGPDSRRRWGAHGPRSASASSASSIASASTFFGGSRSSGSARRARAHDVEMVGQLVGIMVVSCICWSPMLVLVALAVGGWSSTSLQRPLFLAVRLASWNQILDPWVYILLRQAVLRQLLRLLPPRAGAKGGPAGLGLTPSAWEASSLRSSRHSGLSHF
Text: as §1

EP2 [5] = molecular target: T5, EP2; assay: EP2 Ki (binding)
Text: as §1

Row | Structure (SMILES) | EC50 (hEP3A) [nM] | EC50 (EP4 [1]) [nM] | EC50 (hDP) [nM] | EC50 (hTP) [nM] | EC50 (hFP) [nM] | Ki (EP4 [2]) [nM] | EC50 (hIP) [nM] | EC50 (EP2 [3]) [nM] | EC50 (EP2 [4]) [nM] | EC50 (hEP1) [nM] | Ki (EP2 [5]) [nM]
1 | O=C(O)CCC/C=C\C[C@@H]1[C@@H](COCc2cccc(C(F)(F)F)c2)[C@H](O)C[C@H]1Cl | 88 | 2330 | > 10000 | 11 | 22500 | 3170 | 7 | 5 | 195 | 97 | 214
2 | O=C(O)c1ccc(CCC[C@@H]2[C@@H](C=C=Cc3ccccc3)[C@H](O)C[C@H]2Cl)s1 |  | 11100 | 10200 |  |  | 715 |  | 1.7 |  |  | 6
3 | CN(Cc1ccccc1)C[C@@H]1[C@@H](CCCc2ccc(C(=O)O)s2)[C@H](Cl)C[C@H]1O |  |  | 5620 |  |  |  |  | 3.6 |  |  | 24
4 | O=C(O)c1ccc(CCC[C@@H]2[C@@H](CNCc3ccccc3)[C@H](O)C[C@H]2Cl)s1 |  |  |  |  |  |  |  | 6 |  |  | 143

Continued, values first:

Row | EC50 (hEP3A) [nM] | EC50 (EP4 [1]) [nM] | EC50 (hDP) [nM] | EC50 (hTP) [nM] | EC50 (hFP) [nM] | Ki (EP4 [2]) [nM] | EC50 (hIP) [nM] | EC50 (EP2 [3]) [nM] | EC50 (EP2 [4]) [nM] | EC50 (hEP1) [nM] | Ki (EP2 [5]) [nM] | Structure (SMILES)
5 |  | 6540 | > 10000 | 2520 |  | 606 |  | 0.5 | 255 |  | 3 | CCc1cccc(COC[C@@H]2[C@@H](CCCc3ccc(C(=O)O)s3)[C@H](Cl)C[C@H]2O)c1
6 | 8060 | 10100 |  | 7110 |  | 999 |  | 1 | 9920 |  | 0.6 | O=C(O)c1ccc(CCC[C@@H]2[C@@H](CCCc3cc(Cl)cc(Cl)c3)[C@H](O)C[C@H]2Cl)s1
7 |  | > 10000 |  |  |  | 1840 |  | 0.9 | 13800 |  | 4 | CCc1cccc(CCC[C@@H]2[C@@H](CCCc3ccc(C(=O)O)s3)[C@H](Cl)C[C@H]2O)c1
8 |  |  |  |  |  | 740 |  | 0.3 | 2520 | 4260 | 0.5 | O=C(O)c1ccc(CCC[C@@H]2[C@@H](CCCc3cccc(C(F)(F)F)c3)[C@H](O)C[C@H]2Cl)s1
9 |  |  |  |  |  |  |  | 1.7 | 3260 |  | 11 | O=C(O)c1ccc(CCC[C@@H]2[C@@H](C=C=Cc3cccc(C(F)(F)F)c3)[C@H](O)C[C@H]2Cl)s1
10 |  | 4960 | 6780 |  |  | 2160 |  | 0.6 |  |  | 3 | O=C(O)c1ccc(CCC[C@@H]2[C@@H](CCCc3ccccc3)[C@H](O)C[C@H]2Cl)s1
